{"source": "patent US10206860B2", "about": "“Biguanide preservation of precipitated calcium carbonate” (Colgate-Palmolive Company, priority 2009, dated 2019)", "assay": "Association of PHMB with PCC after drying (drum dryer)", "format": "physicochemical", "details": "only water is evaporated", "text": "Although PHMB is water soluble, with the drying process used for PCC (a drum dryer), only water is evaporated; the PHMB remains associated with the PCC.", "data": [{"substance": "poly[(hexamethylene)biguanide] [PHMB]", "values": [{"measurement": "Association of PHMB with the PCC after the drying process", "value": "remains associated with the PCC after the drying process"}]}]}
